The experiment concerns 70 kd heat shock proteins. Put plainly: Expression of 70 kd heat shock proteins in HeLa cells (SDS-PAGE and blotting). Set-up: key: +++: the sign “+” shows the potency of signals of the 70 kd heat shock proteins observed in the blotting the more the numbers of +, the more potent the signals; ++: the sign “+” shows the potency of signals of the 70 kd heat shock proteins observed in the blotting the more the numbers of +, the more potent the signals; the sign “+” shows the potency of signals of the 70 kd heat shock proteins observed in the blotting the more the numbers of +, the more potent the signals; The sign “±” means that the signal was very weak. Conditions: six hours. The class given is cell-based. The procedure:
The medium was discarded, 1 ml of 10% trichloroacetic acid was added to each of the wells and the cells were recovered by a scraper.
The cells prepared as such were subjected to an SDS-PAGE and a blotting according to a method of Example 1 to detect the expression of 70 kd heat shock proteins.
As a result, induction of the 70 kd heat shock proteins noted in the sections to which the cyclopentenone of from 5 μM to 40 μM was added. […] The sign “±” means that the signal was very weak.

As to `O=C1C=CC(O)C1O` (stereo not shown) [cyclopentenone, 4,5-dihydroxy-2-cyclopenten-1-one], the “Amount of 70 kd of Heat Shock Proteins” value (5 μM) is listed as “+”, the “Amount of 70 kd of Heat Shock Proteins” value (10 μM) is “++”, the “Amount of 70 kd of Heat Shock Proteins” value (20 μM) is “+++” and the “Amount of 70 kd of Heat Shock Proteins” value (40 μM) is recorded as “+++”.

The record behind these values is US6518317B1, “Antiviral agents” (priority 1997, dated 2003).
